According to article PMC7073184, “The Major Cat Allergen Fel d 1 Binds Steroid and Fatty Acid Semiochemicals: A Combined In Silico and In Vitro Study” (International Journal of Molecular Sciences, 2020):
Read-outs that look alike come from different tables or passages of the source.

Key:
[1] = target: T1, rFel d 1 (Felis catus, UniProt P30438+P30440); experiment: 1-NPN displacement screening (fluorescence); assay type: binding, cat; conditions: 1 µM rFel d 1, 1 μM 1-NPN, 2 µM competitive ligand
T1 sequence (P30440 18-109): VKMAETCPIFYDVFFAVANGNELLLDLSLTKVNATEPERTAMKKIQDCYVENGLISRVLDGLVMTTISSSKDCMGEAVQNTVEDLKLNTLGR
T1 sequence (P30438 23-92): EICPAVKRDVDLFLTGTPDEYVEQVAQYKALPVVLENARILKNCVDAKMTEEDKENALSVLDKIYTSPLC
Procedure: (§1) N-Phenyl-1-naphthylamine (1-NPN) was used as a non-polar fluorescent probe in competitive binding experiments with the ligands (Sigma, France) to investigate binding efficiency of semiochemical analogs with pure rFel d 1 (INDOOR Biotechnologies, UK). The fluorescence experiments were performed on an FP-750 spectrofluorometer (JASCO, Japan) instrument at 25 °C in a right-angle configuration with a 1 cm light path fluorimeter quartz cuvette and 5-nm slits for both excitation and emission. The probe 1-NPN was excited at 337 nm and emission spectra were recorded between 380 and 450 nm, at 25 °C. The protein was dissolved in 50 mM Tris-HCl, pH 7.4, and ligands were added as 1 mM methanol solutions.
(§2) Semiochemicals were first screened for their capabilities to bind rFel d 1 using 1 µM of rFel d 1, 1 μM of 1-NPN, and 2 µM of a competitive ligand. […] IC50 was graphically determined from the dose–response curve of each competitor ligand.

[2] = ref PubChem and ChemSpider; cited from earlier work
[3] = target: T1, rFel d 1; experiment: Competitive binding assay with the fluorescent probe 1-NPN; design: species or system cat; conditions: for IC50: 1 µM rFel d 1, 2 μM 1-NPN, 25 °C, 50 mM Tris-HCl pH 7.4, competitor 0–16 μM; for Kd: calculated from IC50 with K1-NPN […]
Procedure: Figure 2 Competitive binding of selected fatty acids (a) and steroids (b) to rFel d 1. […] Fluorescence of probe-protein complexes in the absence of a competitor was normalized to 100%.
as §1, §2

[4] = target: T1, rFel d 1; experiment: 1-NPN binding to rFel d 1 (fluorescence titration); design: species or system cat
Procedure: To a 1-µM solution of the protein in 50 mM Tris-HCl, pH 7.4, aliquots of 1 mM solution of 1-NPN in methanol were added to final concentrations of 1–20 µM. (a) The representative emission curves experimentally obtained. […] (b) The saturation binding curve obtained from the average of three experiments.
N-Phenyl-1-naphthylamine (1-NPN) was used as a non-polar fluorescent probe in competitive binding experiments with the ligands (Sigma, France) to investigate binding efficiency of semiochemical analogs with pure rFel d 1 (INDOOR Biotechnologies, UK) [30]. The fluorescence experiments were performed on an FP-750 spectrofluorometer (JASCO, Japan) instrument at 25 °C in a right-angle configuration with a 1 cm light path fluorimeter quartz cuvette and 5-nm slits for both excitation and emission. The probe 1-NPN was excited at 337 nm and emission spectra were recorded between 380 and 450 nm, at 25 °C. The protein was dissolved in 50 mM Tris-HCl, pH 7.4, and ligands were added as 1 mM methanol solutions.
The binding of 1-NPN to rFel d 1 was tested at two protein concentrations (1 µM and 2 µM) by titrating the protein solution with aliquots of a 1-mM solution of 1-NPN in methanol to final concentrations of 1–20 µM. The bound ligand was evaluated from the values of fluorescence intensity assuming that the protein was 100% active, with a stoichiometry of 1:1 protein: ligand. […]

Compound	1-NPN Displacement Screening [1]	Topological Polar Surface Area [2] [Å²]	also measured
CCCCCCCCCCCCCCCC(=O)OC [Methyl Palmitate]	No	26.3	
CCCCCCCCCCCCCCO [Tetradecanol]	No	20.2	
CC(C)C(=O)O [Isobutyric acid]		37.3	
CCCCCCCCCCCC(=O)OCC [Ethyl Laurate]	No	26.3	
CCCCCCCCCCCCCCCC(=O)O [Palmitic acid]	Yes	37.3	affinity to rFel d 1 in words ([3]; competitive binding with 1-NPN, among the fatty acids): weakest ligand
C[C@]12CC[C@@H](O)C[C@@H]1CC[C@@H]1[C@@H]2CC[C@]2(C)C=CC[C@@H]12 [Androstenol]	No	20.2	
CCCCCCCCC(N)=O [Nonanamide]		43.1	
Deoxycorticosterone	No	54.4	
CCCCC/C=C\C/C=C\CCCCCCCC(=O)O [Linoleic acid]	Yes	37.3	IC50 [3]: 10.1 µM; Kd [3]: 7.8 µM
CCCCCCCC/C=C\CCCCCCCC(=O)O [Oleic acid]	Yes	37.3	IC50 [3]: 10 µM; Kd [3]: 7.7 µM
CCCCCCCCCCCCCC(=O)O [Myristic acid]	Yes	37.3	IC50 [3]: 14.4 µM; Kd [3]: 11.1 µM
C[C@]12CCC(=O)C=C1CC[C@@H]1[C@@H]2CC[C@]2(C)C(=O)CC[C@@H]12 [Androstenedione]	Yes	34.1	
CC(=O)[C@H]1CC[C@H]2[C@@H]3CCC4=CC(=O)CC[C@]4(C)[C@H]3CC[C@]12C [Progesterone]	Yes	34.1	IC50 [3]: 13.6 µM; Kd [3]: 10.5 µM
CC(=O)[C@H]1CC[C@H]2[C@@H]3CC=C4C[C@@H](O)CC[C@]4(C)[C@H]3CC[C@]12C [Pregnenolone]	Yes	37.3	IC50 ([3]; read-out: IC50): 13.1 µM; Kd ([3]; read-out: Kd): 10.1 µM
CCCCCCCCCCCCO [Dodecanol]	No	20.2	
CCCCCCCCCCCCCCCC(N)=O [Hexadecanamide]		43.1	
CC12C=CCC1C1CCC3CC(=O)CCC3(C)C1CC2 (centres unmarked) [Androstenone]	Yes	17.1	IC50 ([3]; read-out: IC50): 3.1 µM; Kd ([3]; read-out: Kd): 2.4 µM
C[C@]12CCC(=O)C[C@@H]1CC[C@@H]1[C@@H]2CC[C@]2(C)[C@@H](O)CC[C@@H]12 [Dihydrotestosterone]	No	37.3	
CCCCCCCCCCCC=O [Dodecanal]	No	17.1	
CC(=O)[C@@]1(O)CC[C@H]2[C@@H]3CCC4=CC(=O)CC[C@]4(C)[C@H]3CC[C@@]21C [Hydroxyprogesterone]	Yes	54.4	
CCCCCCCCCCCCCCCCCC(N)=O [Octadecanamide]		43.1	
c1ccc(Nc2cccc3ccccc23)cc1 [1-NPN, N-phenyl-1-naphthylamine, reference compound]		12	Kd ([4]; 1 µM rFel d 1, 50 mM Tris-HCl pH 7.4, 1-NPN 1–20 µM, average of three experiments, read-out: dissociation constant of 1-NPN (GraphPad)): 5.8 µM; Kd ([4]; 1 µM rFel d 1, Scatchard plot, read-out: dissociation constant K1-NPN (Scatchard analysis)): 4.8 µM
CCCCCCCCCCCC(=O)O [Lauric acid]	Yes	37.3	IC50 [3]: 3.3 µM; Kd [3]: 2.6 µM
C[C@]12CC[C@H]3[C@@H](CCC4=CC(=O)CC[C@@]43C)[C@@H]1CC[C@@H]2O [Testosterone]	Yes	37.3	
C[C@]12CC[C@H](O)CC1=CC[C@@H]1[C@@H]2CC[C@]2(C)C(=O)CC[C@@H]12 [Dehydroepiandrosterone (DHEA), Dehydroepiandrosterone]	Yes	37.3	
C[C@]12CC[C@@H]3c4ccc(O)cc4CC[C@H]3[C@@H]1CCC2=O [Estrone]	Yes		
CCCCCCCCCC(=O)O [Capric acid]	No		
C[C@]12C[C@H](O)[C@H]3[C@@H](CCC4=CC(=O)CC[C@@]43C)[C@@H]1CC[C@@H]2C(=O)CO [Corticosterone]	No	74.6	
C[C@]12CC[C@@H]3c4ccc(O)cc4CC[C@H]3[C@@H]1CC[C@@H]2O [Estradiol]	Yes	40.5	
